Experiments:
[1] = test system: NCI-H460; assay: Cytotoxicity assay (MTS, Celltiter 96) in NCI-H460; type: cell-based, human; details: for IC50: 72 h drug incubation, MTS assay, mean of duplicate experiments ± SD
Protocol: (§1) After successful synthesis and purification of P1-A1, P1-B1, and P1-B2 was completed, each drug was tested for its cell-kill ability in five non-small-cell lung cancer cell lines (Table 2).
(§2) ^aConcentration of compound that reduces cell viability by 50%, determined at 72 h of drug incubation using the MTS (3-(4,5-dimethylthiazol-2-yl)-5-(3-carboxymethoxyphenyl)-2-(4-sulfophenyl)-2H-tetrazolium) assay. Values are means of duplicate experiments±the standard deviation. ^bCompound not tested in this cell line.
(§3) The human non-small cell lung cancer cell lines, NCI-H460 (large cell), NCI-H520 (squamous cell), NCI-H522, NCI-H1435 and A549 (adenocarcinomas) were obtained from the American Type Culture Collection (Rockville, Md., USA). NCI-H460, NCI-H520 and NCI-H522 cells were cultured in RPMI-1640 media (HyClone) supplemented with 10% fetal bovine serum (FBS), […] (P&S), […], and 1.5 g/L NaHCO3. A549 cells were cultured in HAM's F12K media (Gibco) with the same additives as above. NCI-H1435 cells were cultured in serum-free 1:1 DMEM/F12 media (Gibco) containing 2.436 g/L NaHCO3, 0.02 mg/mL insulin, 0.01 mg/mL transferrin, 25 nM sodium selenite, 50 nM hydrocortisone, 1 ng/mL epidermal growth factor, 0.01 mM ethanolamine, 0.01 mM phosphorylethanolamine, 100 pM triiodothyronine, 0.5% (w/v) bovine serum albumin (BSA), 10 mM HEPES, 0.5 mM sodium pyruvate, and an extra 2 mM L-glutamine (final concentration 4.5 mM). Cells were incubated at a constant temperature at 37° C. in a humidified atmosphere containing 5% CO2 and were subcultured every 2 to 3 days in order to maintain cells in logarithmic growth, except for NCI-H1435 which was subcultured every 7 days.
(§4) The cytotoxicity studies were carried out according to a standard protocol using the Celltiter 96 aqueous nonradioactive cell proliferation assay kit (Promega, Madison, Wis.). Stock solutions (10 mM) of all drugs were made in DMF, except for P1-B2 which was made in DMSO, and serially diluted with media prior to incubation with cancer cells. IC50 values were calculated from nonlinear curve fits using a sigmoidal dose-response equation in GraphPad Prism (GraphPad Software, La Jolla, Calif.).

[2] = test system: NCI-H520; assay: Cytotoxicity assay (MTS, Celltiter 96) in NCI-H520; type: cell-based, human; details: mean of duplicate experiments ± SD
Protocol: as §1, §2, §3, §4

[3] = test system: G-quadruplex DNA; assay: G-quadruplex DNA recognition and platination; type: binding; details: for Selective recognition of G-quadruplex DNA: displayed by induced circular dichroism (ICD)
[4] = test system: A549; assay: Cytotoxicity assay (MTS, Celltiter 96) in A549; type: cell-based, human; details: 72 h drug incubation, mean of duplicate experiments ± SD
Protocol: as §1, §2, §3
as §4, with “Stock solutions (10 mM) of all drugs were made in DMF, except for P1-B2 which was made in DMSO, and serially diluted with media prior to incubation with cancer cells.” left out

[5] = test system: NCI-H1435; assay: Cytotoxicity assay (MTS, Celltiter 96) in NCI-H1435; type: cell-based, human; details: 72 h drug incubation, mean of duplicate experiments ± SD
Protocol: as §1, §2, §3
as §4, with “Stock solutions (10 mM) of all drugs were made in DMF, except for P1-B2 which was made in DMSO, and serially diluted with media prior to incubation with cancer cells.” left out

[6] = test system: NCI-H522; assay: Cytotoxicity assay (MTS, Celltiter 96) in NCI-H522; type: cell-based, human; details: 72 h drug incubation, mean of duplicate experiments ± SD
Protocol: as §1, §2, §3
as §4, with “Stock solutions (10 mM) of all drugs were made in DMF, except for P1-B2 which was made in DMSO, and serially diluted with media prior to incubation with cancer cells.” left out

[7] = Spectrophotometric determination of pKa values for platinum complexes; type: physicochemical; details: spectrophotometric titration at 25° C.; numeric values only in Chart 3 drawing
Protocol: The pKa values of P1-A1, P1-B1 and P1-B2 were determined spectrophotometrically using a Hewlett Packard 8354 spectrophotometer equipped with a Peltier temperature control and a cell stirring module. Titrations were carried out at 25° C. in the pH range 2-11 with a micro combination electrode placed inside the cuvette. Solutions of P1-A1 (˜100 μM), P1-B1 (˜100 μM), and P1-B2 (˜50 μM) in 0.1 M HCl/100 mM NaCl were titrated with aliquots of 0.4 M, 0.04M, and 0.004M KOH, and UV-Vis spectra were recorded after a 2 min equilibration time. The protonation state of the chromophores was deduced from spectral changes around isosbestic points. The pKa values were determined graphically from plots of pH vs. log[k(Aacr/AacrH+)], where k=εacrH+/εacr using suitable absorbance maxima. The pKa values of P1-A1 and P1-B1 were determined at the y-intercept of the plot. […] Reported pKa values are means of three measurements+/−the standard deviation.

[8] = test system: RNA from NCI-H460 cells; assay: Platinum content associated with RNA in NCI-H460 cells (ICP-MS); type: cell-based, human; details: 1 μM drug, 3 h, p<0.05
Protocol: (§5) To determine the platinum content of nucleic acid material, DNA and RNA was extracted and purified from cells using the Qiagen AllPrep DNA/RNA Mini Kit (Qiagen, Alameda, Calif., USA). 1.5×10^6 exponentially-growing NCI-H460 cells were seeded into 60-mm cell culture dishes with 2 mL of media and were allowed to attach for 24 hours. Cells were incubated in the presence of 1 μM P1-A1 or P1-B1 at 37° C. for various time intervals. Incubations were performed in triplicate for each incubation condition/time point. To quench the incubations, cells were washed three times in cold PBS. The cells were harvested via trypsinization and removed from the dishes with successive washes of cold PBS. Cell suspensions were centrifuged at 1500 rpm for 5min at 4° C. The cell pellet was re-suspended in 5 mL of cold PBS and centrifuged at 1500 rpm for 5 min at 4° C. The supernatant was removed and the DNA/RNA was extracted from the pellet according to the protocol provided by the manufacturer. The concentration and purity of each sample was determined spectrophotometrically (triplicate readings at 260 and 280 nm).
(§6) Platinum content was determined by ICP-MS.

[9] = test system: DNA from NCI-H460 cells; assay: Platinum content associated with DNA in NCI-H460 cells (ICP-MS); type: cell-based, human; details: 1 μM drug, both time points, p>0.05
Protocol: as §5, §6

[10] = test system: non-small-cell lung cancer cell lines; assay: Cytotoxicity across NSCLC lines (summary statements); type: cell-based, human
Protocol: as §1
When observing the structure-activity relationship of the platinum hybrid agents, it is important to note the increased cytotoxicity upon addition of the platinum module.
The human non-small cell lung cancer cell lines, NCI-H460 (large cell), NCI-H520 (squamous cell), NCI-H522, NCI-H1435 and A549 (adenocarcinomas) were obtained from the American Type Culture Collection (Rockville, Md., USA). NCI-H460, NCI-H520 and NCI-H522 cells were cultured in RPMI-1640 media (HyClone) supplemented with 10% fetal bovine serum (FBS), […] (P&S), […], and 1.5 g/L NaHCO3. A549 cells were cultured in HAM's F12K media (Gibco) with the same additives as above. […]
as §4, with “Stock solutions (10 mM) of all drugs were made in DMF, except for P1-B2 which was made in DMSO, and serially diluted with media prior to incubation with cancer cells.” left out

[11] = Homo sapiens, NCI-H520, 72 h drug incubation

Compound | IC50 ([1]; Homo sapiens, NCI-H460) | IC50 value (in words) ([1]; NCI-H460 cells, 72 h incubation, chromophore module alone) | IC50 [2, 11] | Selective recognition of G-quadruplex DNA [3] | IC50 [4] | IC50 [1] | IC50 [5] | IC50 ([2]; 72 h drug incubation) | IC50 [6] | pKa (rank among the three Pt-chromophore hybrid agents) [7] | folding and irreversible platination of G-quadruplex DNA [3] | platinum level observed in the RNA of treated cells [8] | platinum level observed in the DNA of treated cells vs control cells [9] | cytotoxicity (in words) ([10]; 72 hour incubations, extremely aggressive NSCLC models) | IC50 ([10]; NSCLC lines tested except NCI-H1435)
CNCCNc1c2ccccc2nc2c1ccc1ccccc12 [Compound B1, N1-(benzo[c]acridin-7-yl)-N2-methylethane-1,2-diamine] | 0.9 ± 0.1 µM | sub-micromolar range | 1.8 ± 0.1 µM | – | – | – | – | – | – | – | – | – | – | – | –
CNCCNc1c2cc([N+](=O)[O-])ccc2nc2c1ccc1ccccc12 [Compound B2, N1-methyl-N2-(9-nitrobenzo[c]acridin-7-yl)ethane-1,2-diamine] | 2.08 ± 0.04 µM | – | 3.35 ± 0.08 µM | – | – | – | – | – | – | – | – | – | – | – | –
[Pt(Cl)(NH3)2(N-(2-(acridin-9-ylamino)ethyl)-N-methylpropionimidamide)] Cl [Compound P1-A1, reference compound] | – | – | – | not previously displayed | 0.0065 ± 0.0002 µM | 0.0052 ± 6e-05 µM | 0.84 ± 0.07 µM | 0.043 ± 0.004 µM | 0.01 ± 0.0007 µM | highest | – | – | – | – | –
[Pt(Cl)(NH3)2(N-(2-(benzo[c]acridin-7-ylamino)ethyl)-N-methylpropionimidamide)] Cl [Compound P1-B1] | – | – | – | Selective recognition of G-quadruplex DNA | 0.32 ± 0.06 µM | 0.24 ± 0.01 µM | 1.479 ± 0.009 µM | 0.516 ± 0.009 µM | 0.12 ± 0.02 µM | – | ability to fold and irreversibly platinate G-quadruplex DNA | statistically significant | not statistically significant | nanomolar cytotoxicity | 0.1 to 0.5 µM
[Pt(Cl)(NH3)2(N-methyl-N-(2-((9-nitrobenzo[c]acridin-7-yl)amino)ethyl)propionimidamide)] Cl •1/3 DMF [Compound P1-B2] | – | – | – | Selective recognition of G-quadruplex DNA | 12.4 ± 0.9 µM | 2.4 ± 0.5 µM | 11 ± 0.2 µM | 2.2 ± 0.1 µM | 3.62 ± 0.08 µM | lowest | ability to fold and irreversibly platinate G-quadruplex DNA | – | – | – | –

— patent US10377784B2, “Design, synthesis, and biological activity of platinum-benz[c]acridine hybrid agents and methods associated therewith” (Wake Forest University, priority 2014, dated 2019)
